Laboratory results published in patent US20230236193A1, “[…] FOR S[…]” (VANDERBILT UNIVERSITY, priority 2020, published 2023).
Values after ≈ are worked out from the molar mass of the structure shown.

Tests used:
[1] = molecular target: SK678Siglec+Unique (SLBRSK678, GST fusion), S. sanguinis strain SK678, variant Q367D; test: ELISA, biotinylated sialoglycan binding to immobilized GST-adhesin; conditions: ELISA curves
[2] = molecular target: T1, HsaSiglec+Unique (SLBRHsa, GST fusion), wild-type, Streptococcus gordonii strain Challis (Streptococcus gordonii, UniProt A8AWU7); test: as above; conditions: ligands chosen for costructures
T1 construct: the Siglec and Unique domains of Hsa; made in house
T1 sequence (A8AWU7 220-449 limits assumed): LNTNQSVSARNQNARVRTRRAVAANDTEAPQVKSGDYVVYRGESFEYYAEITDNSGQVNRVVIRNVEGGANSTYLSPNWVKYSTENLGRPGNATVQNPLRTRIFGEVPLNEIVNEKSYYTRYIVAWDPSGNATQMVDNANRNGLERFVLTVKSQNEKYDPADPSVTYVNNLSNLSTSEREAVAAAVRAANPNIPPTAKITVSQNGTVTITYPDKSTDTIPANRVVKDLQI
Protocol: (§1) 19. FIGS. 9A, 9B, 9C, and 9D show the impact of flexibility of sialoglycan binding by HsaBR. […] As a note, Hsa^S253 contains Ramachandran angles in the generously allowed region. FIGS. 9B, 9C, and 9D show dose response curves of wild-type and variant GST-HsaSiglec+Unique (500 nM) immobilized in 96-well plates and binding to 9B. the Neu5Ac-Gal disaccharide, 9C. sialyl-T antigen, and 9D. 3′sialyl-N-acetyllactosamine. Biotinylated sialoglycan ligands were added at the indicated concentrations. Binding is reported as the mean±standard deviation, with n=2.
(§2) 20. FIGS. 10A, 10B, 10C, 10D, and 10E show chimeragenesis of Hsa-like adhesins. Dose-response curves of 10A wild-type GST-SK678Siglec+Unique, 10B wild-type GST-UB10712Siglec+Unique, and 10C wild-type GST-HsaSiglec+Unique to five selected ligands. D and E. Dose-response curves of the chimeras D. GST-SK678^Hsa-loops and E. UB10712^Hsa-loops which contain the CD, EF, and FG loops of Hsa.

[3] = molecular target: SK678Siglec+Unique (SLBRSK678, GST fusion), wild-type, Streptococcus sanguinis strain SK678; test: as above; conditions: ELISA curves
Source text: as §2

[4] = test system: UB10712Siglec+Unique (SLBRUB10712, GST fusion), S. gordonii strain UB10712, chimera +Hsa FG loop; test: ELISA, biotinylated sialoglycan binding to immobilized GST-adhesin chimera; parameters: species or system Streptococcus gordonii strain UB10712; conditions: +SLBRHsa FG loop; one-point, 1-2 μg/ml biotinylated glycans
Source text: (§3) 21. FIGS. 11A, and 11B show chimeras of SRR adhesins. […] Values correspond to the mean±standard deviation, with n=2 (wt) or n=3 (variants). […] Values correspond to the mean±standard deviation, with n=2 (wt) or n=3 (variants).

[5] = test system: UB10712Siglec+Unique (SLBRUB10712, GST fusion), S. gordonii strain UB10712, chimera +Hsa EF loop; test: as above; parameters: species or system Streptococcus gordonii strain UB10712; conditions: +SLBRHsa EF loop; one-point, 1-2 μg/ml biotinylated glycans
Source text: as §3

[6] = test system: UB10712Siglec+Unique (SLBRUB10712, GST fusion), S. gordonii strain UB10712, chimera +Hsa CD loop; test: as above; parameters: species or system Streptococcus gordonii strain UB10712; conditions: +SLBRHsa CD loop; one-point, 1-2 μg/ml biotinylated glycans
Source text: as §3

[7] = molecular target: SK678Siglec+Unique (SLBRSK678, GST fusion), S. sanguinis strain SK678, variant E298R; test: ELISA, biotinylated sialoglycan binding to immobilized GST-adhesin; conditions: for EC50: ELISA curves; for binding selectivity: ELISA
Protocol: (§4) DNA encoding wild-type and variant adhesins were cloned into pGEX-3X. […] DNA encoding adhesin chimeras were cloned into pGEX-3X.
(§5) The pGEX vectors encode an N-terminal glutathione S-transferase (GST) affinity tag, which was used for purification. Individual GST-Siglec+Unique fusions were expressed and purified using glutathione-sepharose, and the binding of biotinylated glycans to immobilized GST-binding regions was performed.

[8] = test system: SK678Siglec+Unique (SLBRSK678, GST fusion), S. sanguinis strain SK678, chimera +Hsa FG loop; test: ELISA, biotinylated sialoglycan binding to immobilized GST-adhesin chimera; parameters: species or system Streptococcus sanguinis strain SK678; conditions: +SLBRHsa FG loop; one-point, 1-2 μg/ml biotinylated glycans
Source text: as §3

[9] = test system: SK678Siglec+Unique (SLBRSK678, GST fusion), S. sanguinis strain SK678, chimera +Hsa CD loop; test: as above; parameters: species or system Streptococcus sanguinis strain SK678; conditions: +SLBRHsa CD loop; one-point, 1-2 μg/ml biotinylated glycans
Source text: as §3

[10] = test system: SK678Siglec+Unique (SLBRSK678, GST fusion), S. sanguinis strain SK678, chimera +Hsa EF loop; test: as above; parameters: species or system Streptococcus sanguinis strain SK678; conditions: +SLBRHsa EF loop; one-point, 1-2 μg/ml biotinylated glycans
Source text: as §3

[11] = molecular target: T2, UB10712Siglec+Unique (SLBRUB10712, GST fusion), S. gordonii strain UB10712, variant E285R (Streptococcus mitis, UniProt A0A6I8WFK9); test: ELISA, biotinylated sialoglycan binding to immobilized GST-adhesin
T2 sequence (A0A6I8WFK9 1-210): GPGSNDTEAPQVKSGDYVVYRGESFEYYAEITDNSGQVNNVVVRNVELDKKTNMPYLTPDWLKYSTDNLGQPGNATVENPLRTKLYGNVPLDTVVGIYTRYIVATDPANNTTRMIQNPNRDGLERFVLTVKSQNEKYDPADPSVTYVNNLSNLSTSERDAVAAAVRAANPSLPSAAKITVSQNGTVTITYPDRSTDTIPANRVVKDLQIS
Protocol: as §4, §5

[12] = ELISA: sialoglycan binding spectrum of wild-type, chimeric and variant adhesins (several ligands, in words); conditions: 500 nM immobilized GST-adhesin, compared with wild-type/parent
Protocol: as §1, §2, §3

[13] = previously reported glycan binding/array; cited from earlier work
human plasma proteins = test: Far-western blotting of human plasma proteins with GST-binding regions; conditions: 15 nM probe
Protocol: Each Far Western was performed at least twice, with a representative blot shown.
Far-western blotting of human plasma proteins using the indicated GST-binding regions (15 nM) as probes was performed as described.

Molecule	EC50 [1] [µg/mL]	ligand affinity class [2]	EC50 [3] [µg/mL]	relative binding strength (A450) [4]	relative binding strength (A450) [5]	relative binding strength (A450) [6]	EC50 [7] [µg/mL]	relative binding strength (A450) [8]	relative binding strength (A450) [9]	relative binding strength (A450) [10]	binding selectivity [11]	binding selectivity [7]	change of sialoglycan binding and selectivity [12]	reported sialoglycan selectivity of wild-type adhesin [13]	plasma glycoprotein bound (human plasma proteins)
CC(=O)N[C@H]1[C@H]([C@H](O)[C@H](O)CO)O[C@@](O[C@H]2[C@@H](O)[C@@H](CO)O[C@@H](O[C@H]3[C@H](O)[C@@H](NC(C)=O)C(O)O[C@@H]3CO)[C@@H]2O)(C(=O)O)C[C@@H]1O (some centres unmarked) [3′sLn, Neu5Acα2-3Galβ1-4GlcNAc]	>5	intermediate-affinity	0.85 (≈ 1.26 µM)	++ (A450 = 0.7-1)	+++ (A450 > 1)	++ (A450 = 0.7-1)	2.60 (≈ 3.85 µM)	+ (A450 = 0.3-0.7)	− (A450 < 0.3)	++ (A450 = 0.7-1)	–	–	–	–	–
CC(=O)N[C@H]1[C@H]([C@H](O)[C@H](O)CO)O[C@@](O[C@H]2[C@@H](O)[C@@H](CO)O[C@@H](O[C@H]3[C@H](O)[C@@H](NC(C)=O)C(O)O[C@@H]3COS(=O)(=O)O)[C@@H]2O)(C(=O)O)C[C@@H]1O (stereo partly drawn) [6S-3′sLn]	–	–	–	–	–	–	–	–	–	–	became selective	became selective	–	–	–
CC(=O)N[C@H]1[C@H]([C@H](O)[C@H](O)CO)O[C@@](O[C@H]2[C@@H](O)[C@@H](CO)O[C@@H](O[C@H]3[C@H](O[C@@H]4O[C@@H](C)[C@@H](O)[C@@H](O)[C@@H]4O)[C@@H](NC(C)=O)C(O)O[C@@H]3COS(=O)(=O)O)[C@@H]2O)(C(=O)O)C[C@@H]1O (stereo partly drawn) [6S-sLe^X]	>5	low-affinity	0.63 (≈ 0.699 µM)	+ (A450 = 0.3-0.7)	+++ (A450 > 1)	+++ (A450 > 1)	0.06 (≈ 0.0666 µM)	− (A450 < 0.3)	− (A450 < 0.3)	++ (A450 = 0.7-1)	became selective	became selective	–	–	–
CC(=O)N[C@H]1[C@H]([C@H](O)[C@H](O)CO)O[C@@](O[C@H]2[C@@H](O)[C@@H](CO)O[C@@H](O[C@H]3[C@H](O)[C@@H](CO)OC(O)[C@@H]3NC(C)=O)[C@@H]2O)(C(=O)O)C[C@@H]1O (some centres unmarked) [sLe^C, Neu5Acα2-3Galβ1-3GlcNAc]	>5	high-affinity	>5	+ (A450 = 0.3-0.7)	+ (A450 = 0.3-0.7)	− (A450 < 0.3)	>5	− (A450 < 0.3)	− (A450 < 0.3)	− (A450 < 0.3)	–	–	–	–	–
CC(=O)N[C@H]1[C@H]([C@H](O)[C@H](O)CO)O[C@@](O[C@H]2[C@@H](O)[C@@H](CO)O[C@@H](O[C@H]3[C@@H](O)[C@@H](CO)OC(O)[C@@H]3NC(C)=O)[C@@H]2O)(C(=O)O)C[C@@H]1O (some centres unmarked) [sTa, Neu5Acα2-3Galβ1-3GalNAc]	>5	high-affinity	>5	++ (A450 = 0.7-1)	+ (A450 = 0.3-0.7)	+ (A450 = 0.3-0.7)	>5	− (A450 < 0.3)	− (A450 < 0.3)	− (A450 < 0.3)	–	–	–	–	–
GspBSiglec+Unique: wild-type Siglec and Unique domains of GspB from S. gordonii strain M99 (protein) DTERPVVNVPSEITVYRGESFEYFATVTDNSNAFDLAKTVVRWLYNNQPGRGTEWLQYSVTQVGNQLKVRIFGNVPIDTTIGDYTRYVVATDAAGNVNATQTEMGNAAVDKTSVNGQFKLIIRFRIKTPENTVFVNNPNQLTEVEKNLVREAVKKSNPDLRAQDVLNSNYVTGITVSNNGTTTITYRDGRKDIIDGSKFIDTR	–	–	–	–	–	–	–	–	–	–	–	–	binding preference for sTa	narrow selectivity for the sTa trisaccharide	sTa-modified proteoglycan 4
